The results in this text go back to ChEMBL document CHEMBL3991601, “The target landscape of clinical kinase drugs” (Science, 2017).

The Kd is a measure of binding affinity in units of concentration.

Test [1] has as its target Insulin-like growth factor 1 receptor (Homo sapiens, UniProt P08069).
Test [2] deals with T1, Exosome RNA helicase MTR4 (Homo sapiens, UniProt P42285).
T1 sequence (P42285 whole entry): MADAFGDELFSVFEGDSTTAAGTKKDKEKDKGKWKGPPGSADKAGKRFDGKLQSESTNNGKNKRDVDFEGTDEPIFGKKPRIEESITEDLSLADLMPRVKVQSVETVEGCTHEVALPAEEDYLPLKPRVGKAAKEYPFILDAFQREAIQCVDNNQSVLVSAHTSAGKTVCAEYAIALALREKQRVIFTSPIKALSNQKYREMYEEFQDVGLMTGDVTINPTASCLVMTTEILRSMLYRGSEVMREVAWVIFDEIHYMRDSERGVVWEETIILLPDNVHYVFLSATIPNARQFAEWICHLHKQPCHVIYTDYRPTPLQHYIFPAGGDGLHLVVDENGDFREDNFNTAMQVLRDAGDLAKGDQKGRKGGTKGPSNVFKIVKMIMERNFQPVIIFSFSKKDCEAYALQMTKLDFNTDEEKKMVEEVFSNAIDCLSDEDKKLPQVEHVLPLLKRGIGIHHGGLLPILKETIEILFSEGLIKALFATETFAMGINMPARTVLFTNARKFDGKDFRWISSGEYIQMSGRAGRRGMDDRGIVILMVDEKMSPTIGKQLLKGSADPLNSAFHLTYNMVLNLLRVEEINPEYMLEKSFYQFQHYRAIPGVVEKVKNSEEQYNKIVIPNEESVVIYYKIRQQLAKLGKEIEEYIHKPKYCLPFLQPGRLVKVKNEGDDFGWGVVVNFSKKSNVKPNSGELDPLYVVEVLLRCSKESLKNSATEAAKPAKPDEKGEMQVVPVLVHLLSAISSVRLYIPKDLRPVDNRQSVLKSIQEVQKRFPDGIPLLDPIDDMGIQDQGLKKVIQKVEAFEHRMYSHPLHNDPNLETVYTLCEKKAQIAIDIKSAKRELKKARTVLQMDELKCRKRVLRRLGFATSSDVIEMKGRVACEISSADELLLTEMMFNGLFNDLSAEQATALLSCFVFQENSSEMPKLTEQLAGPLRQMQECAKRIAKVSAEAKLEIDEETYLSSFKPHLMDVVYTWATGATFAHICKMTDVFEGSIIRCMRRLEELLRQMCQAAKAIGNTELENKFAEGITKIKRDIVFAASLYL

Test [3] has as its target Mitogen-activated protein kinase kinase kinase 1 (Homo sapiens, UniProt Q13233).
In test [4] the target is T2, Ferrochelatase, mitochondrial (Homo sapiens, UniProt P22830).
T2 sequence (P22830 whole entry): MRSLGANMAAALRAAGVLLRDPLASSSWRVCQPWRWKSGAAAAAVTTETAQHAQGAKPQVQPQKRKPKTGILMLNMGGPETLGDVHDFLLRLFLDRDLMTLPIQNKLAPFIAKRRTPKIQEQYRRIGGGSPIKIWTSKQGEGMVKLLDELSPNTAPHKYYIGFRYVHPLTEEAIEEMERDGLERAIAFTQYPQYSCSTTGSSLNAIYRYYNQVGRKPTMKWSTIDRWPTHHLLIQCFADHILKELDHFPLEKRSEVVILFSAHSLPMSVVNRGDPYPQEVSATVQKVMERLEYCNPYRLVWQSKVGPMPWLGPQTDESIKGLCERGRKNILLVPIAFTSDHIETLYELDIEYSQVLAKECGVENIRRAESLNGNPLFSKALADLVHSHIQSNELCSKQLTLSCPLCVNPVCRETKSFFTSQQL

The target in test [5] is T3, Rab-like protein 3 (Homo sapiens, UniProt Q5HYI8).
T3 sequence (Q5HYI8 whole entry): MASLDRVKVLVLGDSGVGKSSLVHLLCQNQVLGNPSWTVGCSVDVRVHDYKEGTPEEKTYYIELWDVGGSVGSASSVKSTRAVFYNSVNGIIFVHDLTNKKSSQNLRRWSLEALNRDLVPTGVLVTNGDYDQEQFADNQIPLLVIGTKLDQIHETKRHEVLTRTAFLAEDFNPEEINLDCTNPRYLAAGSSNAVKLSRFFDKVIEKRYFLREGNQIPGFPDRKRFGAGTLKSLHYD

Test [6] addresses Serine/threonine-protein kinase SIK3 (Homo sapiens, UniProt Q9Y2K2).
Test [7] deals with Rho-associated protein kinase 2 (Homo sapiens, UniProt O75116).
Test [8] concerns the target LIM domain kinase 2 (Homo sapiens, UniProt P53671).
Test [9] concerns the target T4, Glycine--tRNA ligase (Homo sapiens, UniProt P41250).
T4 sequence (P41250 whole entry): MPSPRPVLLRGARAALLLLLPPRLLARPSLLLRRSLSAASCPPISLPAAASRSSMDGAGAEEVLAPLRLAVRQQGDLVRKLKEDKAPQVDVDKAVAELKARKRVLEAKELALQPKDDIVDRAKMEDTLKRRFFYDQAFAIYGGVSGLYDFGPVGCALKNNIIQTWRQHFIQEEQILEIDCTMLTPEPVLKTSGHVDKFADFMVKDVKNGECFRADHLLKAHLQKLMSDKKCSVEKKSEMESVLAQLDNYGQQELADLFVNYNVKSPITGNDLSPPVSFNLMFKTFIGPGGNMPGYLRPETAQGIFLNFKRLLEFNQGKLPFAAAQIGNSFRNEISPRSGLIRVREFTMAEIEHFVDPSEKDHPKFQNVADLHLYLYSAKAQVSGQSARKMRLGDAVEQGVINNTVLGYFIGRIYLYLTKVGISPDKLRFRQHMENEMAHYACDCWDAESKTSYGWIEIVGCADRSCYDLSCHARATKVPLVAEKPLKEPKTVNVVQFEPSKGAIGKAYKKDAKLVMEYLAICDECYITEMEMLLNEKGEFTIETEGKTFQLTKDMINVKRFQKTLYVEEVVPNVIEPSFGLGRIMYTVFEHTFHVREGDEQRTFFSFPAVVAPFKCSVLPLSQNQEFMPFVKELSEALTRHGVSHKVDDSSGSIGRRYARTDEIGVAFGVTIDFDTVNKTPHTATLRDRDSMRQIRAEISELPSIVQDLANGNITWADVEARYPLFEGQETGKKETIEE

For test [10], the target named is Bone morphogenetic protein receptor type-1A (Homo sapiens, UniProt P36894).
Bone morphogenetic protein receptor type-1A, sequence (P36894 whole entry): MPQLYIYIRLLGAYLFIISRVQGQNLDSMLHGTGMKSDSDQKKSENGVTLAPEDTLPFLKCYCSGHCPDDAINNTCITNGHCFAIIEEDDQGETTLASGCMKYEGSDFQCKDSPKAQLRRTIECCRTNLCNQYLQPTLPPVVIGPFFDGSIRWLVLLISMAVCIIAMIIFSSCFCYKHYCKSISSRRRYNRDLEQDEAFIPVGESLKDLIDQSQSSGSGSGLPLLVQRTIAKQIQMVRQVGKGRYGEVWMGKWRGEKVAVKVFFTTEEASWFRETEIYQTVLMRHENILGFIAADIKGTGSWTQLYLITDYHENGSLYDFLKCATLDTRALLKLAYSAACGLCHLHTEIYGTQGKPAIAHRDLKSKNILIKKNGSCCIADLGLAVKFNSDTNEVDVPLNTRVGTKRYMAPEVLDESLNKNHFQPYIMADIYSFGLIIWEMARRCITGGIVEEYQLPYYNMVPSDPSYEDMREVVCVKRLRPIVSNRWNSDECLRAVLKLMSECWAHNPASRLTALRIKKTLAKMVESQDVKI

Activity calls are given as the source filed them.
Further: in the data inactive means no Kd found up to 30 µM.

Mitogen-activated protein kinase kinase kinase 1, sequence (Q13233 whole entry): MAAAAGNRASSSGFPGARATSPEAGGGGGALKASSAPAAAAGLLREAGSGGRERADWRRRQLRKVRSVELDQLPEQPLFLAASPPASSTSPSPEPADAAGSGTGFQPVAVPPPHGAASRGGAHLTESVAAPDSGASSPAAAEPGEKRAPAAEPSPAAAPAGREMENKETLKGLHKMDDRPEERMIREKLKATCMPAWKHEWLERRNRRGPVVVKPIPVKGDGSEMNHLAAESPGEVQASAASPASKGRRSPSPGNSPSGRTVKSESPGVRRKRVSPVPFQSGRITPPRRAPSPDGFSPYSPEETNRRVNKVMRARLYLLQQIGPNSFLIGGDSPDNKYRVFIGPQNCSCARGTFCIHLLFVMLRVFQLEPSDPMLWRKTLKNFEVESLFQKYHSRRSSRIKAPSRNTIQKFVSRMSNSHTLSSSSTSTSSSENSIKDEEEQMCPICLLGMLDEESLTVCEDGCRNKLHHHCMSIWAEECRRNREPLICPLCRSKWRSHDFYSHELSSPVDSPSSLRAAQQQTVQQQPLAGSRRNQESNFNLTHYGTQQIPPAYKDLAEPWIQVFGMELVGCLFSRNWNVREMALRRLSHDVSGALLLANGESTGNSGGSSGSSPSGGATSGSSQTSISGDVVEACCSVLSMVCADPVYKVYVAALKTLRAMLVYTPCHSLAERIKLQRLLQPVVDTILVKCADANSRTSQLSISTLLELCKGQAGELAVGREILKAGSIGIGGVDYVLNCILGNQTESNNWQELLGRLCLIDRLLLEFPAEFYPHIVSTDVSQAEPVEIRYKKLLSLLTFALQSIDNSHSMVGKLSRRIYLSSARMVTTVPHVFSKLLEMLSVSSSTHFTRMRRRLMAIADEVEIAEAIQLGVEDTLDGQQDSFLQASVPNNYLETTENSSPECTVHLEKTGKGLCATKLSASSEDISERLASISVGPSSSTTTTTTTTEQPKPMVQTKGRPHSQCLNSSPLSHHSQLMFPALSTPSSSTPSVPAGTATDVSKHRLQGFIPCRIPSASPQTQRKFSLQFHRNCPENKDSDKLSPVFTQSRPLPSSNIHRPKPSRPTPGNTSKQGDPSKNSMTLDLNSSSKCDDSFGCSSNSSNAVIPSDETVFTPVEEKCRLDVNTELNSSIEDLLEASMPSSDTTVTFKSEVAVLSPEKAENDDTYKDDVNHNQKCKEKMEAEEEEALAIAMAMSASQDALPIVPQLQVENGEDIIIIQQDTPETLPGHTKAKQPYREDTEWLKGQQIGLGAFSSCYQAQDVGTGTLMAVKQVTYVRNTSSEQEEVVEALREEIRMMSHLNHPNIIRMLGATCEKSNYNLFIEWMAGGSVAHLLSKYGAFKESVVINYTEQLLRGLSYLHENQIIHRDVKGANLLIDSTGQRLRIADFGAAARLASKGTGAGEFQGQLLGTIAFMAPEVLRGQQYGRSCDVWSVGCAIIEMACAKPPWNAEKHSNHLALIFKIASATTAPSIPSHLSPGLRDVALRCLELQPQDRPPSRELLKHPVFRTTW
Serine/threonine-protein kinase SIK3, sequence (Q9Y2K2 whole entry): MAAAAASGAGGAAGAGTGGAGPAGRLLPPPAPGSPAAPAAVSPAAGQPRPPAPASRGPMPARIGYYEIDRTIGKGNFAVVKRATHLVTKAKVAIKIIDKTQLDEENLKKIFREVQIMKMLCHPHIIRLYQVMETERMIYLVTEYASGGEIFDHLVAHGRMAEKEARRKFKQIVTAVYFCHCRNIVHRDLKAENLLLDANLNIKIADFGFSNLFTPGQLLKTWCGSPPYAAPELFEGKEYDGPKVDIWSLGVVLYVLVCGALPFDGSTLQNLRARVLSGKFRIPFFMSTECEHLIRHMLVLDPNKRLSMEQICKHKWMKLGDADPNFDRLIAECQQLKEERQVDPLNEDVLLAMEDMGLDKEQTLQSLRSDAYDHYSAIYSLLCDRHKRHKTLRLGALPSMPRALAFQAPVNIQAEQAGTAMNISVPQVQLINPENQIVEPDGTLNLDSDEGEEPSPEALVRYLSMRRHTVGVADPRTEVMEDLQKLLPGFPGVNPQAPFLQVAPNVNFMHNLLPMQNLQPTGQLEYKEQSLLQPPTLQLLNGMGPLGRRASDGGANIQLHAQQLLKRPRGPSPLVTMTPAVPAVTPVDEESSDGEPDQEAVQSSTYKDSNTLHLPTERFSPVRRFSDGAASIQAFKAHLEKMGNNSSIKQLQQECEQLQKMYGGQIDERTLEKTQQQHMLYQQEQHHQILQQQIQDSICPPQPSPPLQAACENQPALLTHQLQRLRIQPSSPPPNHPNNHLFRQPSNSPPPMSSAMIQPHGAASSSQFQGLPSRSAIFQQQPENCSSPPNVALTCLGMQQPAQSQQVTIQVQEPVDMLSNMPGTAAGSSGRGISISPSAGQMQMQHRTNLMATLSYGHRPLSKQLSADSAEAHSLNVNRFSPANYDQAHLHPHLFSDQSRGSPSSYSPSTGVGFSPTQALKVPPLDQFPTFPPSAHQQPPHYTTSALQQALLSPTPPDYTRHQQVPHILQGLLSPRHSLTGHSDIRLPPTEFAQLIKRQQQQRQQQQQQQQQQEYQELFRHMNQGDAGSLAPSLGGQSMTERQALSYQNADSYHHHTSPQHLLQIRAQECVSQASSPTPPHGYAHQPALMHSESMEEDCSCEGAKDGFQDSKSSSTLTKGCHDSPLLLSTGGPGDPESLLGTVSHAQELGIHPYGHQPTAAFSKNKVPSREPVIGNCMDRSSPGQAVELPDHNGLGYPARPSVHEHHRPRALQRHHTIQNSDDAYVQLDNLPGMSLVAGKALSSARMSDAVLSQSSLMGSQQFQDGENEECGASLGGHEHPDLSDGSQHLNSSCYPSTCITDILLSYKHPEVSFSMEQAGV
LIM domain kinase 2, sequence (P53671 whole entry, the tested form may be a part): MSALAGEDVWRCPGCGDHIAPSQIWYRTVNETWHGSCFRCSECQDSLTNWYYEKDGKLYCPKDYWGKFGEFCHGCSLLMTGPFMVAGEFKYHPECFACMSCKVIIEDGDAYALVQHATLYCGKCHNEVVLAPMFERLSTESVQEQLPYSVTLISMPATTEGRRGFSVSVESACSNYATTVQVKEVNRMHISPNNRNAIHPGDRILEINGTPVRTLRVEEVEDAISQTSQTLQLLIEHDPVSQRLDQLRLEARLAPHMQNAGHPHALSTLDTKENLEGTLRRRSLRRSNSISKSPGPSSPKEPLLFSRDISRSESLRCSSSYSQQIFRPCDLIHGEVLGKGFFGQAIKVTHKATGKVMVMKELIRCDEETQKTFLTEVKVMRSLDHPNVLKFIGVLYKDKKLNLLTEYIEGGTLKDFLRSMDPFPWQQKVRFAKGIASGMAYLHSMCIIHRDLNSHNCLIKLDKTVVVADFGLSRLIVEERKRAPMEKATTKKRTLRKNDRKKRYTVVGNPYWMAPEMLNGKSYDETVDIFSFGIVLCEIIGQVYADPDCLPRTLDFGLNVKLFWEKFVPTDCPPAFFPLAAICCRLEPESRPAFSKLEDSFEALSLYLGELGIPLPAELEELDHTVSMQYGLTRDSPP

Take `c1cc(OCCN2CCCCC2)cc(-c2n[nH]c3ccc(-c4nc[nH]n4)cc23)c1` [CC-401]: the Kd was > 30 µM (inactive) in test [1]; > 30 µM (inactive) in test [2]; > 30 µM (inactive) in test [3]; 32.4 µM (active) in test [4]; > 30 µM (inactive) in test [5]; > 30 µM (inactive) in test [6]. Moreover, the Kd in test [7], in [8], in [9] and in [10] was > 30 µM (inactive) each time.
On to `NC(=O)c1ccc(N(C(N)=O)c2c(F)cccc2F)nc1-c1ccc(F)cc1F` [VX-702], for which the Kd in [1], in test [2], in [3], in test [4], in test [5] and in test [6] was > 30 µM (inactive) in each case. In addition, the Kd in test [7], in [8], in test [9] and in test [10] was > 30 µM (inactive) throughout.
As for `CC[C@@](C)(Nc1ccnc(-c2c[nH]c3ncccc23)n1)C(=O)NCC(F)(F)F` [DECERNOTINIB], the Kd in test [1], in test [2], in [3], in [4], in test [5] and in test [6] was > 30 µM (inactive) each time. Further, the equilibrium dissociation constant (Kd) in test [7] was 56.1 µM (active); in test [8], > 30 µM (inactive); in test [9], > 30 µM (inactive); in [10], > 30 µM (inactive).
With `CC(C)(O)CC(=O)NCCn1ccc2ncnc(Nc3ccc(Oc4cccc(C(F)(F)F)c4)c(Cl)c3)c21` [TAK-285], the Kd in test [1], in test [2], in test [3], in [4], in test [5] and in test [6] was > 30 µM (inactive) in each case. For the same compound, the Kd in test [7], in [8], in test [9] and in [10] was > 30 µM (inactive) each time.
Consider `COc1cc2ncnc(Nc3ccc(O)cc3)c2cc1OC` [WHI-P131], for which the Kd in [1], in test [2], in [3], in test [4], in [5] and in [6] was > 30 µM (inactive) each time. Besides, the Kd in [7], in [8], in test [9] and in test [10] was > 30 µM (inactive) each time.
Consider `CNC(=O)c1cc(COc2nnc(Nc3ccc(Cl)cc3)c3ccoc23)ccn1` [TELATINIB], for which the Kd in test [1], in [2], in [3], in test [4], in test [5] and in test [6] was > 30 µM (inactive) throughout. Moreover, the Kd in [7], in [8], in test [9] and in test [10] was > 30 µM (inactive) throughout.
As for `COc1cccc(Nc2ncnn3ccc(CN4CC[C@@H](N)[C@H](O)C4)c23)c1` [BMS-690514], the Kd in test [1], in test [2], in [3], in test [4], in test [5] and in [6] was > 30 µM (inactive) each time. Also, the Kd in test [7], in test [8], in [9] and in [10] was > 30 µM (inactive) in each case.
Regarding `S=C(NCc1ccc2c(c1)OCO2)N1CCN(c2ncnc3c2oc2ccccc23)CC1` [AMUVATINIB], the Kd in test [1], in test [2], in [3], in [4], in test [5] and in test [6] was > 30 µM (inactive) each time. Moreover, the Kd in test [7], in [8], in test [9] and in [10] was > 30 µM (inactive) each time.
Turning to `COc1cc(F)c(F)c(Nc2ccc(I)cc2F)c1NS(=O)(=O)C1(C[C@H](O)CO)CC1` [REFAMETINIB], the Kd in test [1], in test [2], in test [3], in test [4], in test [5] and in test [6] was > 30 µM (inactive) in each case. The Kd in test [7], in test [8], in test [9] and in test [10] was > 30 µM (inactive) each time.
Regarding `Cc1ccc(C(=O)Nc2ccc(Oc3cc4cnn(C)c4cc3-c3cn[nH]c3)c(F)c2)c(=O)n1-c1ccc(F)cc1` [MERESTINIB], the Kd in [1], in [2], in test [3], in [4], in test [5] and in test [6] was > 30 µM (inactive) each time. For the same compound, the Kd in test [7], in test [8], in [9] and in test [10] was > 30 µM (inactive) in each case.
With `C=CC(=O)Nc1cccc(Nc2nc(Nc3ccc(N4CCN(C(C)=O)CC4)cc3OC)ncc2C(F)(F)F)c1` [ROCILETINIB], the Kd in [1], in [2], in test [3], in test [4], in [5] and in test [6] was > 30 µM (inactive) throughout. Further, the Kd in test [7], in [8], in [9] and in test [10] was > 30 µM (inactive) in each case.
